Our source for the EC50 values is patent US12351580B2, “NLRP3 modulators” (Innate Tumor Immunity, Inc., priority 2017, dated 2025).

The experiment concerns the target T1, TLR7 (Homo sapiens, UniProt Q9NYK1).
T1 construct: host or cells: HEK-Blue cells (human HEK) co-expressing TLR7 and an NF-kB/AP1-inducible SEAP reporter
T1 sequence (Q9NYK1 27-1049): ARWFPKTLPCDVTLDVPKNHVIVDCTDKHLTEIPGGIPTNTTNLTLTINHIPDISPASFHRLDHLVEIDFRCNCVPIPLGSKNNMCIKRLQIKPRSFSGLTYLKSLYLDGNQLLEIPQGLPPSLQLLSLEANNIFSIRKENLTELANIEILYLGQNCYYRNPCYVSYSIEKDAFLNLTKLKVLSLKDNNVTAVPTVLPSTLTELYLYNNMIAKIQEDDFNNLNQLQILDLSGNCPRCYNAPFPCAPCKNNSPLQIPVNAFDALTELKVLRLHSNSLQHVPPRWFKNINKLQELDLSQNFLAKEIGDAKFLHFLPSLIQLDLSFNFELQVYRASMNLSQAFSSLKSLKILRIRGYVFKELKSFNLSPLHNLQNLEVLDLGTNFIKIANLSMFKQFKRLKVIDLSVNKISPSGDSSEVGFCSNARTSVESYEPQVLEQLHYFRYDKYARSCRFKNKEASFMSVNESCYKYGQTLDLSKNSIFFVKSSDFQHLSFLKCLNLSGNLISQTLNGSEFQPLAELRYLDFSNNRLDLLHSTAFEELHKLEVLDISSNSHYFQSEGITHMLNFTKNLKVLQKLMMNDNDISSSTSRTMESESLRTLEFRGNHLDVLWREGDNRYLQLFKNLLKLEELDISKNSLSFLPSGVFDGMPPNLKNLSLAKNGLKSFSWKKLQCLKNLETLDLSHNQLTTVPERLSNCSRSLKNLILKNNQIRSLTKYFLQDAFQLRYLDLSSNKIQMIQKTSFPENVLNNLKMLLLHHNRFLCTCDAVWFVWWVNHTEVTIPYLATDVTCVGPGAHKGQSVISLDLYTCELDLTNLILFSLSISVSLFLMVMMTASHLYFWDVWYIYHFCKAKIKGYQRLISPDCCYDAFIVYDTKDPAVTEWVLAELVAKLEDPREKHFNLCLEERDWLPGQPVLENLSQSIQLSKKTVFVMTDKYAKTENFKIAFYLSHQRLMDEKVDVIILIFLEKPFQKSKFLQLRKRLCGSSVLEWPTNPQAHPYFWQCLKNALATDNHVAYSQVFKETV
In words: In vitro human TLR7 binding reporter assay (HEK-Blue, NF-kB/AP1-inducible SEAP). The experiment is classed as cell-based. Conditions: activity range symbols. In outline:
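Reporter cells are plated at 15,000 per well and rested 24 h. Next day, test compounds or DMSO are dispensed, followed by 18 h incubation at 37 °C, 5% CO2.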
(In general: In a reporter assay the amount or activity of a reporter protein is the signal.)
One may read the EC50 as the concentration giving half of the maximal effect. Higher therefore signals lower potency in that assay. `COc1cccc(-c2ccc3c(c2)nc(N)c2nc(CN4CCCC4=O)[nH]c23)c1` [Compound 287, 1-[[4-amino-7-(3-methoxyphenyl)-1H-imidazo[4,5-c]quinolin-2-yl]methyl]pyrrolidin-2-one]: the EC50 is over 100 µM.

As for `N#Cc1cccc(-c2ccc3c(c2)nc(N)c2nc(CN4CCCC4=O)[nH]c23)c1` [Compound 288, 3-[4-amino-2-[(2-oxopyrrolidin-l-yl)methyl]-1H-imidazo[4,5-c]quinolin-7-yl]benzonitrile], the EC50 is over 100 µM.

For `Nc1nc2cc(-c3cccc(F)c3)ccc2c2[nH]c(CN3CCCC3=O)nc12` [Compound 289, 1-[[4-amino-7-(3-fluorophenyl)-1H-imidazo[4,5-c]quinolin-2-yl]methyl]pyrrolidin-2-one], the EC50 is over 100 µM.

In turn, `Cc1ccc(-c2ccc3c(c2)nc(N)c2nc(CN4CCCC4=O)[nH]c23)cc1` [Compound 291, 1-[[4-amino-7-(4-methylphenyl)-1H-imidazo[4,5-c]quinolin-2-yl]methyl]pyrrolidin-2-one] came in with a concentration giving a half-maximal response (EC50) of over 100 µM.

Take `Nc1nc2cc(Br)ccc2c2[nH]c(CN3CCCC3=O)nc12` [Compound 294, 1-[(4-amino-7-bromo-1H-imidazo[4,5-c]quinolin-2-yl)methyl]pyrrolidin-2-one]: the concentration for a half-maximal effect (EC50) was in the range of 20 to 100 µM.

In turn, `Nc1nc2cc(-n3cccn3)ccc2c2[nH]c(CN3CCCC3=O)nc12` [Compound 295, 1-[(4-amino-7-pyrazol-1-yl-1H-imidazo[4,5-c]quinolin-2-yl)methyl]pyrrolidin-2-one] came in with an EC50 of over 100 µM.

In the case of `Cc1cnn(-c2ccc3c(c2)nc(N)c2nc(CN4CCCC4=O)[nH]c23)c1` [Compound 296, 1-[[4-amino-7-(4-methylpyrazol-1-yl)-1H-imidazo[4,5-c]quinolin-2-yl]methyl]pyrrolidin-2-one], the EC50 is over 100 µM.

`Nc1nc2cc(C3CCOCC3)ccc2c2[nH]c(CN3CCCC3=O)nc12` [Compound 298, 1-[[4-amino-7-(oxan-4-yl)-1H-imidazo[4,5-c]quinolin-2-yl]methyl]pyrrolidin-2-one] showed a 50% effective concentration (EC50) of 1 to 20 µM.

The compound `Cc1ccn(-c2ccc3c(c2)nc(N)c2nc(CN4CCCC4=O)[nH]c23)n1` [Compound 301, 1-[[4-amino-7-(3-methylpyrazol-1-yl)-1H-imidazo[4,5-c]quinolin-2-yl]methyl]pyrrolidin-2-one] came in with a half-maximal effective concentration (EC50) of over 100 µM.

As to `Nc1nc2cc(C3CCCCC3)ccc2c2[nH]c(CN3CCCC3=O)nc12` [Compound 302, 1-[(4-amino-7-cyclohexyl-1H-imidazo[4,5-c]quinolin-2-yl)methyl]pyrrolidin-2-one], the EC50 is over 100 µM.

In turn, `CC(c1nc2c(N)nc3cc(Br)ccc3c2[nH]1)N1CCCC1=O` (centres unmarked) [Compound 303, 1-[1-(4-amino-7-bromo-1H-imidazo[4,5-c]quinolin-2-yl)ethyl]pyrrolidin-2-one] returned a 50% effective concentration (EC50) of 20 to 100 µM.
